Data taken from patent US9211278B2, “Composition containing arylnaphthalene lignan derivative for preventing and/or treating dementia” (KOREA INSTITUTE OF SCIENCE AND TECHNOLOGY, priority 2012, dated 2015).

Assays:
[1] = system: beta-amyloid (Aβ40, Aβ42) formation; assay: Beta-amyloid (Aβ40, Aβ42) formation, ELISA, in APP-transfected HeLa cells; assay type: cell-based, human; conditions: for inhibition at 1 µM / inhibition at 5 µg/mL: Homo sapiens, HeLa, read-out: inhibitory effect on the beta-amyloid; for inhibition of beta-amyloid (Aβ40, Aβ42) formation: HeLa-APP cells, various concentrations (FIGS. 1, 2, 6); for inhibition at 5 µg/mL: 5 μg/ml
Experimental: To test the inhibitory effect of Justicidin A (C1) obtained in Example 2 on the beta-amyloid formation, HeLa cell line transfected with the amyloid precursor protein (APP) driven from human was cultured in DMEM solution (Cat. #11995, Gibco, USA) for use. The cell line was received from Prof. Tae-Wan Kim at Department of Pathology, Columbia University Medical Center, New York, N.Y. 10032, USA.
Specifically, the Justicidin A of Example 2 was added into the cell line culture at the amount indicated in FIG. 1, and then the produced amount of be-amyloid (Aβ40, Aβ42 was measured. Human β-Amyloid[1-40](Aβ40), Human β-Amyloid [1-42](Aβ42) Colorimetric ELISA kit (#KHB3482 and #KHB3442; BioSource International, Inc., U.S.A.) were used to quantify two types of beta-amyloid (Aβ40, Aβ42).
The 5-methoxyJusticidin A (C2) of Example 2 was added into the cell line culture at the amount indicated in FIG. 2, and then the produced amount of be-amyloid was measured according to the method of Example 1.1. The group which was not treated with 5-methoxyjusticidin A was used as a negative control.
The compounds were used at the amount of FIG. 6, and measured for the beta-amyloid (Aβ40, Aβ42) formation according to the same method of Experimental Example <1-1>. The group treated with Justicidin A(C1) was a positive control and the group with no treatment was a negative control.

[2] = system: alpha-secretase product (sAPPα); assay: Alpha-secretase product (sAPPα) production, Western blotting; assay type: cell-based, human; conditions: 8 hours, concentrations of FIG. 5
Experimental: The test result confirmed that Justicidin A (C1) obtained in Example 2 and 5-methoxyJusticidin A increased alpha-secretase product (sAPPα). Specifically, the produced amount of sAPPα was measured by treating the cultured cell line (the HeLa cell line transfected with the amyloid precursor protein (APP) driven from human) with Justicidin A (S62-C1) or 5-methoxyJusticitdin A (S62-C2) at a concentration of FIG. 5, culturing it for 8 hours, and measuring the produced amount of sAPPα according to the Western blotting. The negative control was the group with no treatment of Justicidin A or 5-methoxyJusticidin A.

COc1c2c(c(-c3ccc4c(c3)OCO4)c3cc4c(cc13)OCO4)COC2=O [Justicidin D, reference compound]
inhibition at 1 µM [1]: ~20%

COc1ccc(-c2c3c(c(OC)c4cc5c(cc24)OCO5)C(=O)OC3)cc1OC [retrochinensinaphthol methyether, Retrochinensinaphthol methylether]
inhibition of beta-amyloid (Aβ40, Aβ42) formation [1]: did not show nearly the inhibition

COc1ccc(CC2COC(=O)/C2=C/c2ccc3c(c2)OCO3)cc1OC (stereo not drawn) [succilactone]
inhibition of beta-amyloid (Aβ40, Aβ42) formation [1]: did not show nearly the inhibition
inhibition at 5 µg/mL [1]: ~10%

COc1c2c(cc3c(-c4ccc5c(c4)OCO5)c4c(cc13)C(=O)OC4)OCO2 [Justicidin G, reference compound]
inhibition at 1 µM [1]: ~20%

COc1ccc(-c2c3c(c(O)c4cc5c(cc24)OCO5)COC3=O)cc1OC [Chinensinaphthol]
inhibition at 5 µg/mL [1]: ~50%

COc1c2c(c(-c3ccc4c(c3)OCO4)c3cc4c(cc13)OCO4)C(=O)OC2 [Justicidin F, reference compound]
inhibition at 1 µM [1]: ~20%

COc1cc2c(-c3ccc4c(c3)OCO4)c3c(c(OC)c2c(OC)c1OC)COC3=O [5-methoxyJusticidin A]
inhibition of beta-amyloid (Aβ40, Aβ42) formation [1]: inhibited the beta-amyloid (Aβ40, Aβ42) formation at a concentration-dependent manner
formation of alpha-secretase product (sAPPα) [2]: activated the formation of alpha-secretase product (sAPPα)
